Where two headings read alike, the source gives them in different places.
Biological target: 11β-HSD1 (Homo sapiens, UniProt P28845)
Assay: biochemical
Conditions: for IC50: IC50 Range, Biological Test Example 1, microsomes from CHO cells overexpressing human 11β-HSD1
[1] = read-out: Average % inhibition at 111.1 nM, Biological Test Example 1, 111.1 nM compound
[2] = read-out: Average % inhibition at 100 nM, Biological Test Example 1, 100 nM compound

11β-HSD1, sequence (P28845 whole entry): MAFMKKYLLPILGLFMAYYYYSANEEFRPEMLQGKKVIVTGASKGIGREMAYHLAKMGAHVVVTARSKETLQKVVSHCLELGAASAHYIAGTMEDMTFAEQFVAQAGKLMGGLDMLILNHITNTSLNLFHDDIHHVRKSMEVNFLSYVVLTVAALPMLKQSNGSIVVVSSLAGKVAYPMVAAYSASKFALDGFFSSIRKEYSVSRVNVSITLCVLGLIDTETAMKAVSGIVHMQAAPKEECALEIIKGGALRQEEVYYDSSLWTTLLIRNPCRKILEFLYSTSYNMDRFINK

| IC50 [nM] | inhibition at 0.1111 µM [1] [%] | inhibition at 0.1 µM [2] [%] | Structure (SMILES) | inhibition at 0.1 µM (read-out: Average % inhibition at 100 nM) [%] | inhibition at 0.1111 µM (read-out: Average % inhibition at 111.1 nM) [%] |
| --- | --- | --- | --- | --- | --- |
| < 100 | 95.6 | 94.1 | C[C@@H](C1CCCCC1)N1CC[C@](CCCO)(c2ccc(F)cc2)OC1=O [EXAMPLE 122, (R)-3-((S)-1-cyclohexylethyl)-6-(4-fluorophenyl)-6-(3-hydroxypropyl)-1,3-oxazinan-2-one] |  |  |
| < 100 | 97.6 |  | C=CC[C@]1(c2ccc(F)cc2)CCN([C@@H](C)c2ccc(C3CC3)cc2)C(=O)O1 [EXAMPLE 123, (R)-6-allyl-3-((S)-1-(4-cyclopropylphenyl)ethyl)-6-(4-fluorophenyl)-1,3-oxazinan-2-one] |  |  |
| < 100 | 96.8 | 95.2 | C=CC[C@]1(c2ccc(F)cc2)CCN([C@@H](C)c2ccc(C(=O)OC)cc2)C(=O)O1 [EXAMPLE 124, Methyl 4-((S)-1-((R)-6-allyl-6-(4-fluorophenyl)-2-oxo-1,3-oxazinan-3-yl)ethyl)benzoate] |  |  |
| < 100 | 94 | 98.3 | C[C@@H](c1ccc(C2CC2)cc1)N1CC[C@](CCCO)(c2ccc(F)cc2)OC1=O [EXAMPLE 125, (R)-3-((S)-1-(4-cyclopropylphenyl)ethyl)-6-(4-fluorophenyl)-6-(3-hydroxypropyl)-1,3-oxazinan-2-one] |  |  |
| < 100 | 80.7 | 79 | O=C1O[C@@](CCO)(c2ccccc2)CCN1c1cccc(-c2ccc(F)cc2)[n+]1[O-] [EXAMPLE 126, (S)-2-(4-fluorophenyl)-6-(6-(2-hydroxyethyl)-2-oxo-6-phenyl-1,3-oxazinan-3-yl)pyridine 1-oxide] |  |  |
| < 100 |  | 86.3 | COC(=O)c1ccc([C@H](C)N2CC[C@](CCCO)(c3ccc(F)cc3)OC2=O)cc1 [EXAMPLE 127, Methyl 4-((S)-1-((R)-6-(4-fluorophenyl)-6-(3-hydroxypropyl)-2-oxo-1,3-oxazinan-3-yl)ethyl)benzoate] |  |  |
| > 1000 | 11.3 | 6.6 | C=CCC1(c2ccc(F)cc2)CCN(C(C)c2ccc(-c3ccc(F)cc3F)cn2)C(=O)O1 (centres unmarked) [EXAMPLE 131, 6-allyl-3-(1-(5-(2,4-difluorophenyl)pyridin-2-yl)ethyl)-6-(4-fluorophenyl)-1,3-oxazinan-2-one] |  |  |
| 100 to 1000 | 30.4 |  | O=C1OC(CCO)(c2ccccc2F)CCN1c1cccc(-c2ccc(F)cc2F)[n+]1[O-] (centres unmarked) [EXAMPLE 132, 2-(2,4-difluorophenyl)-6-(6-(2-fluorophenyl)-6-(2-hydroxyethyl)-2-oxo-1,3-oxazinan-3-yl)pyridine 1-oxide] |  |  |
| < 100 | 93.8 | 88.9 | O=C1OC(CCO)(c2ccccc2F)CCN1c1ccc(Cl)c(-c2ccc(F)cc2F)n1 (centres unmarked) [EXAMPLE 135, 3-(5-chloro-6-(2,4-difluorophenyl)pyridin-2-yl)-6-(2-fluorophenyl)-6-(2-hydroxyethyl)-1,3-oxazinan-2-one] |  |  |
| 100 to 1000 | 27.4 | 34.4 | C[C@@H](c1ccc(C(=O)O)cc1)N1CC[C@](CCCO)(c2ccc(F)cc2)OC1=O [EXAMPLE 142, 4-((S)-1-((R)-6-(4-fluorophenyl)-6-(3-hydroxypropyl)-2-oxo-1,3-oxazinan-3-yl)ethyl)benzoic acid] |  |  |
| 100 to 1000 | 26.6 | 27 | C=CC[C@]1(c2ccc(F)cc2)CCN([C@@H](C)c2ccc(C(N)=O)cc2)C(=O)O1 [EXAMPLE 153, 4-((S)-1-((R)-6-allyl-6-(4-fluorophenyl)-2-oxo-1,3-oxazinan-3-yl)ethyl)benzamide] |  |  |
| < 100 | 79 |  | C[C@@H](c1ccc(CO)cc1)N1CC[C@](CCCO)(c2ccc(F)cc2)OC1=O [EXAMPLE 154, (R)-6-(4-fluorophenyl)-3-((S)-1-(4-(hydroxymethyl)phenyl)ethyl)-6-(3-hydroxypropyl)-1,3-oxazinan-2-one] |  |  |
| 100 to 1000 | 45.6 |  | C=CC[C@]1(c2ccc(F)cc2)CCN([C@@H](C)c2ccc(C(=O)NC)cc2)C(=O)O1 [EXAMPLE 155, 4-((S)-1-((R)-6-allyl-6-(4-fluorophenyl)-2-oxo-1,3-oxazinan-3-yl)ethyl)-N-methylbenzamide] |  |  |
| < 100 | 93.8 |  | C=CC[C@]1(c2ccc(F)cc2)CCN([C@@H](C)c2ccc(C(C)(C)O)cc2)C(=O)O1 [EXAMPLE 156, (R)-6-allyl-6-(4-fluorophenyl)-3-((S)-1-(4-(2-hydroxypropan-2-yl)phenyl)ethyl)-1,3-oxazinan-2-one] |  |  |
| < 100 | 92.9 |  | C=CC[C@@]1(c2cccs2)CCN([C@@H](C)c2ccc(-c3ccc(F)cc3F)cc2)C(=O)O1 [EXAMPLE 165, (S)-6-allyl-3-((S)-1-(2′,4′-difluorobiphenyl-4-yl)ethyl)-6-(thiophen-2-yl)-1,3-oxazinan-2-one] |  |  |

Further lines, the compound ahead of its results:

| Structure (SMILES) | IC50 [nM] | inhibition at 0.1111 µM [1] [%] | inhibition at 0.1 µM [2] [%] | inhibition at 0.1 µM (read-out: Average % inhibition at 100 nM) [%] | inhibition at 0.1111 µM (read-out: Average % inhibition at 111.1 nM) [%] |
| --- | --- | --- | --- | --- | --- |
| C=CCC1(c2ccc(F)cc2)CCN([C@@H](C)c2ccccc2)C(=O)O1 (stereo partly drawn) [EXAMPLE 95, 6-allyl-6-(4-fluorophenyl)-3-((S)-1-phenylethyl)-1,3-oxazinan-2-one] | < 100 | 97.3 |  |  |  |
| O=C1OC(CCO)(c2ccccc2)CCN1c1ccc(F)c(-c2ccc(F)cc2)c1 (centres unmarked) [EXAMPLE 96, 3-(4′,6-difluorobiphenyl-3-yl)-6-(2-hydroxyethyl)-6-phenyl-1,3-oxazinan-2-one] | < 100 | 91.9 |  |  |  |
| CC(=O)NCCC1(c2ccccc2)CCN(c2cccc(-c3ccc(F)cc3F)c2)C(=O)O1 (centres unmarked) [EXAMPLE 98, N-(2-(3-(2′,4′-difluorobiphenyl-3-yl)-2-oxo-6-phenyl-1,3-oxazinan-6-yl)ethyl)acetamide] | < 100 | 73.4 |  |  |  |
| CS(=O)(=O)NCCC1(c2ccccc2)CCN(c2cccc(-c3ccc(F)cc3F)c2)C(=O)O1 (centres unmarked) [EXAMPLE 99, N-(2-(3-(2′,4′-difluorobiphenyl-3-yl)-2-oxo-6-phenyl-1,3-oxazinan-6-yl)ethyl)methanesulfonamide] | < 100 | 75.3 |  |  |  |
| O=C1OC(CCO)(c2ccc(F)cc2)CCN1c1ccc(F)c(-c2ccc(F)cc2Cl)c1 (centres unmarked) [EXAMPLE 100, 3-(2′-chloro-4′,6-difluorobiphenyl-3-yl)-6-(4-fluorophenyl)-6-(2-hydroxyethyl)-1,3-oxazinan-2-one] | < 100 | 93.7 |  |  |  |
| O=C1OC(CCO)(c2ccccc2)CCN1c1ccc(F)c(-c2ccc(F)cc2Cl)c1 (centres unmarked) [EXAMPLE 101, 3-(2′-chloro-4′,6-difluorobiphenyl-3-yl)-6-(2-hydroxyethyl)-6-phenyl-1,3-oxazinan-2-one] | < 100 | 84.4 |  |  |  |
| O=C1OC(CCO)(c2ccc(F)cc2)CCN1c1cccc(-c2ccc(F)cc2)n1 (centres unmarked) [EXAMPLE 103, 6-(4-fluorophenyl)-3-(6-(4-fluorophenyl)pyridin-2-yl)-6-(2-hydroxyethyl)-1,3-oxazinan-2-one] | < 100 | 86.9 |  |  |  |
| O=C1OC(CCO)(c2ccccc2F)CCN1c1cccc(-c2ccc(F)cc2)n1 (centres unmarked) [EXAMPLE 104, 6-(2-fluorophenyl)-3-(6-(4-fluorophenyl)pyridin-2-yl)-6-(2-hydroxyethyl)-1,3-oxazinan-2-one] | < 100 | 85.7 |  |  |  |
| O=C1OC(CCO)(c2ccc(F)cc2)CCN1c1ccc(F)c(-c2ccc(F)cc2F)c1 (centres unmarked) [EXAMPLE 105, 6-(4-fluorophenyl)-6-(2-hydroxyethyl)-3-(2′,4′,6-trifluorobiphenyl-3-yl)-1,3-oxazinan-2-one] | < 100 | 87.4 |  |  |  |
| O=C1OC(CCO)(c2ccccc2F)CCN1c1ccc(F)c(-c2ccc(F)cc2F)c1 (centres unmarked) [EXAMPLE 106, 6-(2-fluorophenyl)-6-(2-hydroxyethyl)-3-(2′,4′,6-trifluorobiphenyl-3-yl)-1,3-oxazinan-2-one] | < 100 | 88.7 |  |  |  |
| O=C1OC(CCO)(c2ccccc2)CCN1c1cccc(-c2ccc(F)cc2F)n1 (centres unmarked) [EXAMPLE 107, 3-(6-(2,4-difluorophenyl)pyridin-2-yl)-6-(2-hydroxyethyl)-6-phenyl-1,3-oxazinan-2-one] | < 100 | 97 | 90.9 |  |  |
| O=C1OC(CCO)(c2ccc(F)cc2)CCN1c1cccc(-c2ccc(F)cc2F)n1 (centres unmarked) [EXAMPLE 108, 3-(6-(2,4-difluorophenyl)pyridin-2-yl)-6-(4-fluorophenyl)-6-(2-hydroxyethyl)-1,3-oxazinan-2-one] | < 100 | 55.4 |  |  |  |
| O=C1OC(CCO)(c2ccccc2)CCN1c1cccc(-c2ccc(F)cc2Cl)n1 (centres unmarked) [EXAMPLE 116, 3-(6-(2-chloro-4-fluorophenyl)pyridin-2-yl)-6-(2-hydroxyethyl)-6-phenyl-1,3-oxazinan-2-one] | < 100 | 97.6 |  |  |  |
| CC(C)(O)CC1(c2ccccc2)CCN(c2cccc(-c3ccc(F)cc3F)c2)C(=O)O1 (centres unmarked) [EXAMPLE 117, 3-(2′,4′-difluorobiphenyl-3-yl)-6-(2-hydroxy-2-methylpropyl)-6-phenyl-1,3-oxazinan-2-one] | < 100 | 82.8 |  |  |  |
| O=C1OC(CCO)(c2ccc(F)cc2)CCN1c1cccc(-c2ccc(F)cc2Cl)n1 (centres unmarked) [EXAMPLE 118, 3-(6-(2-chloro-4-fluorophenyl)pyridin-2-yl)-6-(4-fluorophenyl)-6-(2-hydroxyethyl)-1,3-oxazinan-2-one] | < 100 | 96.8 |  |  |  |
| CC1(c2ccccc2)CCN(c2nc(-c3ccccc3)cs2)C(=O)O1 (centres unmarked) [EXAMPLE 121, 6-methyl-6-phenyl-3-(4-phenylthiazol-2-yl)-1,3-oxazinan-2-one] | 100 to 1000 | 34.2 |  |  |  |
| O=C1OC(CCO)(c2ccccc2F)CCN1c1ccc(Cl)c(-c2ccc(F)cc2)n1 (centres unmarked) [EXAMPLE 133, 3-(5-chloro-6-(4-fluorophenyl)pyridin-2-yl)-6-(2-fluorophenyl)-6-(2-hydroxyethyl)-1,3-oxazinan-2-one] | < 100 |  |  | 85.8 | 95.4 |
